Source: PubChem BioAssay (NCI)
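Protocol summary: plate cells (96-well), add compound at 5 concentrations, incubate 48 h, interpolate endpoints linearly. TGI marks complete inhibition of growth.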

Tests used:
Assay in all cases: NCI tumour cell line growth inhibition, 48 h
[1] = tested on: SN12C renal
[2] = tested on: K-562 leukemia
[3] = tested on: A498 renal
[4] = tested on: MDA-N
[5] = tested on: SK-MEL-2 melanoma
[6] = tested on: UO-31 renal
[7] = tested on: HOP-92 NSCLC
[8] = tested on: MALME-3M melanoma
[9] = tested on: HCT-116 colon
[10] = tested on: HCC-2998 colon

Row | SMILES | TGI [1] [µM] | TGI [2] [µM] | TGI [3] [µM] | TGI [4] [µM] | TGI [5] [µM] | TGI [6] [µM] | TGI [7] [µM] | TGI [8] [µM] | TGI [9] [µM] | TGI [10] [µM]
1 | O=c1[nH][nH]c(=O)n1Cc1ccccc1Cn1c(=O)[nH][nH]c1=O | > 100 | > 100 | > 100 | > 100 | > 100 | > 100 | > 100 | > 100 | > 100 | 
2 | O=C1c2ccccc2C2C1N2C(=O)C(F)(F)F (configuration not stated) | > 100 | > 100 | > 100 |  | > 100 | > 100 | > 100 | > 100 | > 100 | 
3 | Oc1ccc(-c2nc(-c3cccnc3)c(-c3ccc(F)cc3)[nH]2)cc1 | 54.6 | 54.6 |  | 37.5 | 34.6 |  |  | 32.6 | 32.9 | 40.3
4 | CC1=CC2C(O1)C1C(=O)C=CC(=O)C1=CC2[N+](=O)[O-] (configuration not stated) | 39.6 | > 100 | 40.6 | 65.8 | 57.2 | 10.4 | 6.2 |  | 31.8 | > 59.7
5 | O=C(NNC(=O)c1ccccc1SSc1ccccc1C(=O)NNC(=O)c1ccccc1S)c1ccccc1S | > 92.6 | > 100 |  | > 100 | > 90.5 | > 100 | > 100 | > 81.2 | > 65.1 | > 100
6 | N.N.N.N.O=[N+]([O-])[O-].[Co+3].[N-]=[N+]=[N-].[N-]=[N+]=[N-] | > 100 | > 100 | > 100 |  | > 100 | > 100 | > 100 | > 100 | > 100 | > 100
7 | Cc1nc(C(N)=S)sc1/C(CC(=O)C(=O)Nc1cccc2ccc(O)cc12)=N\NC(=O)c1ccncc1 | > 100 |  |  | > 100 | > 100 | > 100 | > 100 |  | > 100 | > 100
8 | COc1cc([C@@H]2c3cc4c(cc3[C@@H](Nc3ccc([N+](=O)[O-])cc3C(=O)c3ccccc3)[C@H]3COC(=O)[C@H]23)OCO4)cc(OC)c1OC | > 100 | > 100 | > 100 |  | > 100 |  | > 100 | > 100 | > 100 | > 100
9 | COc1cc2c(cc1OC)C(c1ccccc1CCCCl)=NCC2 | > 100 | > 100 | > 100 |  | > 100 | > 100 | > 100 |  | > 100 | > 100
10 | CC(C)CCCCCCCCCCCCC(=O)NCC(=O)NC1C(C)OC(Nc2ncnc3c2ncn3C)C(O)C1O (configuration not stated) | > 100 | > 100 | 24.2 |  | > 100 | 16.9 | 8.41 | > 100 |  | 11.6
11 | C[C@]12CC[C@H](O)CC1=CC[C@@H]1C2CC[C@]2(C)C(=O)N(N)C(=O)CC12 (some centres not stated) | > 100 | > 100 | > 100 |  | > 100 | > 100 | > 100 | > 100 | > 100 | > 100
12 | O=C(CCC(=O)c1ccc(Cl)cc1)NO | > 100 | > 100 | > 100 | > 100 | > 100 | > 100 | > 100 |  | > 100 | > 100
13 | COC(=O)c1cc2c(n1S(=O)(=O)c1ccc(C)cc1)C(=O)C(=O)c1[nH]cc(C(=O)OCc3ccccc3)c1-2 | 0.241 | > 100 | 3.26 |  | 0.358 | 0.685 | 0.725 | 0.115 | 0.247 | 0.634
14 | CC(C)C1/C(=N/O)CC(c2ccccc2)N(N=O)C1c1ccccc1 (configuration not stated) | > 100 | > 100 |  | > 100 | 73.6 | 82.9 | 78.6 | 61.9 | 85.7 | > 100
15 | COc1cc([C@@H]2OCC3C(c4ccc5c(c4)OCO5)OCC32)cc(OC)c1OC (some centres not stated) | > 100 | > 100 | > 100 |  | > 100 | > 100 | 60.9 | > 100 | > 100 | > 100
16 | N#CN=C(N(Cc1ccccc1)Cc1ccccc1)N(Cc1ccccc1)Cc1ccccc1 | > 100 | > 100 | > 100 |  | > 100 | > 100 |  | > 100 | > 100 | > 100
17 | CCC12C=CCN3CCC4(C(=C(C(=O)OC)[C@@H]1O)Nc1ccccc14)C32 (some centres not stated) | 5.71 | > 26.9 | 5.28 |  | 3.84 | 6.49 | 4.16 | 3.43 | 2.95 | 3.06
18 | Cc1ccccc1-n1c(=O)c2ncn(CCCl)c2n(-c2ccccc2C)c1=S | > 100 | > 100 | > 100 |  | > 100 | > 100 | > 100 |  | > 100 | > 100
19 | CNS(=O)(=O)NNS(=O)(=O)c1ccc2ccccc2c1 | > 100 | > 100 | > 100 |  | > 100 | > 100 |  | > 100 | > 100 | > 100
20 | N#CC1=C(N)N(c2ccccc2)C(c2ccco2)C1(C#N)C#N (configuration not stated) | > 100 | 37.5 | 49.1 | > 100 | 59.4 | 33.6 |  | 52.8 | > 100 | 31.3
21 | CCOC(=O)C1=C(C)NC(=S)NC1c1ccccc1 (configuration not stated) | > 100 | > 75.1 | > 100 |  | > 100 | > 57.1 | > 100 | > 100 | > 100 | > 100
22 | O=C1C(=Cc2ccc(O)cc2)N=C(c2ccccc2)N1n1c(-c2ccccc2)nc2ccccc2c1=O |  |  |  | > 100 |  | > 100 |  | > 100 | > 100 | > 100
23 | Clc1ccc(/C=C/c2nc3ccccc3s2)cc1Cl | > 100 | > 100 |  | > 100 |  | 56 | 72.3 | > 100 | 63.8 | > 100
24 | [N-]=[N+]=Nc1cc(=O)oc2ccccc12 | > 100 | > 100 |  |  | > 100 | > 100 |  | > 100 | > 100 | 
